Patent US8545884B2, “Solid pharmaceutical formulations comprising BIBW 2992” (Boehringer Ingelheim International GmbH, priority 2008, dated 2013)
Blank lines part the entries; values can stand above or below the compound they belong to.

Columns and labels:
[1] = Phase I pharmacokinetics of BIBW 2992 together with docetaxel in cancer patients; type: in vivo, human (cancer patients); settings: once daily dosing, visual inspection
[2] = Phase I pharmacokinetics of BIBW 2992 monotherapy in cancer patients with advanced solid tumors; type: in vivo, human (cancer patients)
Protocol: In four Phase I studies in cancer patients with various advanced solid tumors the pharmacokinetik (PK) characteristics of BIBW 2992 were analyzed. Representative for all of the studies and all the tested dose groups (10 to 100 mg) the 40 mg dose group from one trial is being described in more detail. […] BIBW 2992 plasma concentrations increased after oral administration with peak plasma concentrations mostly around 2-5 hours after dosing. Plasma concentrations declined within the next hours (up to 9 h after dosing), displaying a first disposition phase.
The variability (gCV=geometric coefficient of variation) of the plasma concentrations of the active substance at the different time points was 109-159% up to 9 hours after drug administration but 66.9 to 72.9% at later time points (24 hours after drug administration).

[3] = Tablet content uniformity (RSD) before and after roller compaction and sieving; type: physicochemical; settings: roller compaction, Sieve A
[4] = Bulk densities (poured, tapped; Ph. Eur. 2.9.15) and Hausner factor of powders; type: physicochemical; settings: for Hausner Factor (ρT/ρP) / Poured density (ρP) / Tapped density (ρT): un-milled drug substance
Protocol: Bulk density is measured according to Ph. Eur. 2.9.15 (European Pharmacopoeia, 4. Ed.) as poured density. The tapped density is measured according to Ph. Eur. 2.9.15 (see also Voigt R., Lehrbuch der pharmazeutischen Technologie [Textbook of Pharmaceutical Technology], Verlag Chemie, 5th Edition, page 148). The Hausner factor is a measure for the flowability/compressibility of powders and ideally should be close to 1. […] They range from 0.12 to 0.40 g/mL, caused by different needle lengths (Table 2). The roller compaction step was introduced for densification of the material (see Table 3), which may have • a variability of the poured density between […] (see Table 1) and • a Hausner Factor between 1.05 and 1.61 (see Table 1).

[5] = Chemical stability of the API against moisture / wet granulation; type: physicochemical
[6] = 10 to 100 mg, qd dosing, single dose and steady state
[7] = batch 1, roller compaction, Sieve A, Sieve B
[8] = batch 1, roller compaction, Sieve A, Sieve C
[9] = batch 1, roller compaction, Sieve A, no sieving 2
[10] = batch 2, roller compaction, Sieve A, Sieve C
[11] = batch 3, roller compaction, Sieve A, Sieve C

variability (gCV) of the plasma concentrations ([2]; 40 mg dose group, n=17, time points up to 9 hours after drug administration): 109-159%
time of peak plasma concentrations after dosing ([2]; 40 mg once daily oral, day 27 of Treatment Period 1, n=17): 2 to 5 h
gMean AUCτ,ss dose dependence [2, 6]: increased in a dose-proportional manner
gMean Cmax,ss dose dependence [2, 6]: increased in a dose-proportional manner
Cpre,ss (plasma concentration before drug administration at steady state) dose dependence ([2]; various clinical trials, visual inspection, data not shown): no deviation from dose-proportionality
SMILES: CN(C)C/C=C/C(=O)Nc1cc2c(Nc3ccc(F)c(Cl)c3)ncnc2cc1O[C@H]1CCOC1 [BIBW 2992, 4-[(3-chloro-4-fluorophenyl)amino]-6-{[4-(N,N-dimethylamino)-1-oxo-2-buten-1-yl]amino}-7-((S)-tetrahydrofuran-3-yloxy)-quinazoline]
AUC and Cmax dose dependence [1]: no sign for a deviation from a dose proportional increase
disposition kinetics ([2]; 40 mg once daily oral, day 27 of Treatment Period 1): at least biexponential disposition kinetics

RSD- Tablet Content (High Dose) ([3]; batch 1, Sieve B): 1.4%
RSD- Tablet Content (Low Dose) ([3]; batch 1, Sieve B): 3.6%
RSD- Tablet Content (High Dose) ([3]; batch 1, Sieve C): 1.0%
RSD- Tablet Content (Low Dose) ([3]; batch 1, Sieve C): 1.4%
RSD- Tablet Content (High Dose) ([3]; batch 1, no sieving 2): 3.4%
RSD- Tablet Content (Low Dose) ([3]; batch 1, no sieving 2): 7.7%
RSD- Tablet Content (High Dose) ([3]; batch 2, Sieve C): 0.8%
RSD- Tablet Content (High Dose) ([3]; batch 3, Sieve C): 1.7%
Poured density ([4]; Table 3, drug substance batch 1, before processing): 0.12 g/mL
Poured density ([4]; Table 3, drug substance batch 2, before processing): 0.31 g/mL
Poured density ([4]; Table 3, drug substance batch 3, before processing): 0.40 g/mL
Poured density of Final Blend ([4]; batch 1, no roller compaction, no sieving): 0.40 g/mL
Poured density of Compacted Intermediate of BIBW 2992 MA2 [4, 7]: 0.29 g/mL
Poured density of Final Blend [4, 7]: 0.53 g/mL
Poured density of Compacted Intermediate of BIBW 2992 MA2 [4, 8]: 0.24 g/mL
Poured density of Final Blend [4, 8]: 0.53 g/mL
Poured density of Compacted Intermediate of BIBW 2992 MA2 [4, 9]: 0.33 g/mL
Poured density of Final Blend [4, 9]: 0.56 g/mL
Poured density of Compacted Intermediate of BIBW 2992 MA2 [4, 10]: 0.41 g/mL
Poured density of Final Blend [4, 10]: 0.60 g/mL
Poured density of Compacted Intermediate of BIBW 2992 MA2 [4, 11]: 0.36 g/mL
Poured density of Final Blend [4, 11]: 0.60 g/mL
Hausner Factor (ρT/ρP) ([4]; batch 0): 1.20
Poured density (ρP) ([4]; batch 0): 0.23 g/mL
Tapped density (ρT) ([4]; batch 0): 0.28 g/mL
Hausner Factor (ρT/ρP) ([4]; batch 1): 1.33
Poured density (ρP) ([4]; batch 1): 0.12 g/mL
Tapped density (ρT) ([4]; batch 1): 0.16 g/mL
Hausner Factor (ρT/ρP) ([4]; batch 2): 1.08
Poured density (ρP) ([4]; batch 2): 0.40 g/mL
Tapped density (ρT) ([4]; batch 2): 0.43 g/mL
Hausner Factor (ρT/ρP) ([4]; batch 3): 1.26
Poured density (ρP) ([4]; batch 3): 0.31 g/mL
Tapped density (ρT) ([4]; batch 3): 0.39 g/mL
chemical stability against moisture ([5]; drug substance as described in WO 2005/037824): susceptibility against moisture
SMILES: CN(C)C/C=C/C(=O)Nc1cc2c(Nc3ccc(F)c(Cl)c3)ncnc2cc1O[C@H]1CCOC1.O=C(O)/C=C\C(=O)O.O=C(O)/C=C\C(=O)O [BIBW 2992 MA2]
stability during wet granulation ([5]; wet granulation processing): underwent hydrolytical decomposition and further degradation reaction
